Data as given in patent US10973784B2, “Compositions and methods for treating Alzheimer's disease and Parkinson's disease” (Biotie Therapies, Inc., priority 2016, dated 2021).
Values joined by “and” are separate entries in the source; they are usually repeats but may differ in a detail not shown here. Equal values may be shown once. Read-outs that look alike come from different tables or passages of the source.

Tests used:
[1] = Pharmacokinetic analysis of SYN120 tablets, multiple dose once daily (Example 9); type: in vivo, human; conditions: for Ae % / % Fluctuation / CL renal / half-life: arithmetic mean; for Ae %: urine; for CL renal / Cmax / AUC(0-t) / Tmax / concentration at 14 day / half-life: both sexes, human, oral; for CL renal: plasma and urine, read-out: 0-24 Clr; for Cmax / AUC(0-t) / Tmax / concentration at 14 day / half-life: plasma; for Cmax / AUC(0-t) / concentration at 14 day: geometric mean
Procedure: PK analysis in a multiple dose study was performed on 28 subjects (10 males and 18 females) on day 1 and on 27 subjects (10 males and 17 females) on day 14 who received SYN120 oral tablets. The dosing interval was once daily, approximately 40 minutes after a standard breakfast, for up to 21 days. The subjects were administered the same dose of SYN120 daily at one of the following doses: 100 mg; 300 mg; and 600 mg. The SYN120 oral tablets used in this study were the 50 mg tablets as described in Example 8.
Plasma samples were prepared from blood samples for PK analysis collected on days 1 and 14 at the following time points: 0, 0.5, 1, 1.5, 2, 3, 4, 6, 8, 12, and 24 hrs postdose. Additional blood samples were taken following administration on Day 14 at 32, 36, 48, 72, and 168 hrs (day 15 through day 21). In addition, on days 4 and 10, predose blood samples were collected, while on day 7, blood samples were collected predose and 4 hrs postdose. […] Mean plasma SYN120 concentrations at Day 1, (FIG. 7A and FIG. 7B), and at Day 14 (FIG. 8A and FIG. 8B) are also provided.

[2] = Plasma concentrations of SYN120 at 100 mg QD after titration (Example 10); type: in vivo, human; conditions: for Plasma concentration of SYN120, individual samples: 100 mg QD after titration; for Plasma concentration of SYN120, Max / Plasma concentration of SYN120, Median / Plasma concentration of SYN120, Min / Plasma concentration of SYN120, Mean: 100 mg QD
Procedure: Patients taking SYN120 are titrated from a starting dose of 20 mg SYN120 QD for the first 7 days, followed by 50 mg SYN120 QD for the next 7 days, then 100 mg SYN120 QD for the remaining portion of the study. Plasma samples are taken on study weeks 4, 8 and 16, and a shown below in Table 17.

[3] = target: 5-HT6 receptor (Homo sapiens, UniProt P50406); conditions: cited from earlier work
Chain of 5-HT6 receptor (P50406 whole entry): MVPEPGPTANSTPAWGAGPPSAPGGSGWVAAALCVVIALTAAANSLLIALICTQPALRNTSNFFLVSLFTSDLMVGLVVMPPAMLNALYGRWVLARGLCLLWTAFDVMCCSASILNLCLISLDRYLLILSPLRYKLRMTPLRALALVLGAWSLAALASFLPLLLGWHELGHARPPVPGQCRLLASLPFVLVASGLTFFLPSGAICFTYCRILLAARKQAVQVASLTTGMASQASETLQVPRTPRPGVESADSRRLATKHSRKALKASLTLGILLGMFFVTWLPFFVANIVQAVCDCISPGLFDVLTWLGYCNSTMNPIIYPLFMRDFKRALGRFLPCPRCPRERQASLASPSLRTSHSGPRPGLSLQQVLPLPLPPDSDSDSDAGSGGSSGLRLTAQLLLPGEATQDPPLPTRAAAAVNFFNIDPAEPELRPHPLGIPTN

[4] = target: 5-HT2A receptor (Homo sapiens, UniProt P28223); conditions: cited from earlier work
Chain of 5-HT2A receptor (P28223 whole entry): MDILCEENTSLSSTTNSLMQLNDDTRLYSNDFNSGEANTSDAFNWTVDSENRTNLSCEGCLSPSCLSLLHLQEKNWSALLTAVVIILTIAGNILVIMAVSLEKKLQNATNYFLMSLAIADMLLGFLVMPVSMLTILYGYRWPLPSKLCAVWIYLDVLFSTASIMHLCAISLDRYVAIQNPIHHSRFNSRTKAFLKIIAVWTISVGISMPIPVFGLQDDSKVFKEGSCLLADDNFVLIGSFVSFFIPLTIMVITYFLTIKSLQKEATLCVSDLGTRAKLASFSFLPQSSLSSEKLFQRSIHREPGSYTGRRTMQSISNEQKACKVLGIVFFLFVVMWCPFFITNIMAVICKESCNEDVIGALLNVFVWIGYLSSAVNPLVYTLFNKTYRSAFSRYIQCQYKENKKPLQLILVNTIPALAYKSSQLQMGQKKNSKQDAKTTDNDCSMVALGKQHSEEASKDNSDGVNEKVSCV

[5] = target: 5-HT2B receptor (Homo sapiens, UniProt P41595); conditions: cited from earlier work
Chain of 5-HT2B receptor (P41595 whole entry): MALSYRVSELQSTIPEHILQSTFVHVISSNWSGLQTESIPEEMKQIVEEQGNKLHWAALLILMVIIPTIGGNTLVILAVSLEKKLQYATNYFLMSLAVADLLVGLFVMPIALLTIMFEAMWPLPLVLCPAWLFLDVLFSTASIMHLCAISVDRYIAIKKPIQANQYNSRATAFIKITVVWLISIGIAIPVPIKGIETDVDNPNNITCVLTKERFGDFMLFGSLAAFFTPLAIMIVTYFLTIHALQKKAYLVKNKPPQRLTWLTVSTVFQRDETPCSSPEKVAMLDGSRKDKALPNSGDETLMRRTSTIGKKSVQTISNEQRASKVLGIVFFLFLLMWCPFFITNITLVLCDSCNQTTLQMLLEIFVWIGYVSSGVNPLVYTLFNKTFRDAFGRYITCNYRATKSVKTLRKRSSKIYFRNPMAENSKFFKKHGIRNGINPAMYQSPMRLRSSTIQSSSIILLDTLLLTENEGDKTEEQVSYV

[6] = target: T1, 5-HT2C receptor (Homo sapiens, UniProt P28335); conditions: cited from earlier work
T1 sequence (P28335 33-458): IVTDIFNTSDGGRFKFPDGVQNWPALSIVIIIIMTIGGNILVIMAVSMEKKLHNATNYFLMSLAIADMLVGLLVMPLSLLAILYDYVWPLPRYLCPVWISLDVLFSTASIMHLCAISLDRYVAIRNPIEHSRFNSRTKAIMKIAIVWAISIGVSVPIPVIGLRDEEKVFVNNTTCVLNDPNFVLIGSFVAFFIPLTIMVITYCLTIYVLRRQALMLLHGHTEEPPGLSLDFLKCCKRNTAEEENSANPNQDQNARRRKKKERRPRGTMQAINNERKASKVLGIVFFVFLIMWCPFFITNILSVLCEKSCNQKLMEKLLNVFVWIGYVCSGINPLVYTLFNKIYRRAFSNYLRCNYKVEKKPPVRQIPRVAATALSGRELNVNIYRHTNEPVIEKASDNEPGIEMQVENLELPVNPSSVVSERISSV

## NC(=O)NC[C@@H]1CCCc2cc(S(=O)(=O)c3cccc(F)c3)ccc21 [SYN120]
[1]; Day 1, 100 mg QD
  Ae %: 0.610%
[1]; Day 1, 300 mg QD
  Ae %: 0.857%
[1]; Day 1, 600 mg QD
  Ae %: 0.997%
[1]; Day 14, 100 mg QD
  % Fluctuation: 177%
  Ae %: 1.15%
  half-life: 15.4 h
[1]; Day 14, 100 mg QD, median
  Tlast: 168 h
[1]; Day 14, 300 mg QD
  % Fluctuation: 209%
  Ae %: 0.988%
  half-life: 15.5 h
[1]; Day 14, 300 mg QD, median
  Tlast: 168 h
[1]; Day 14, 600 mg QD
  % Fluctuation: 212%
  Ae %: 0.756%
[1]; Day 14, 600 mg QD, median
  Tlast: 168 h
[1]; 100 mg, Day 1, 100 mg QD
  CL renal: 1.25 mL/min
  Cmax: 813 ng/mL
[1]; 100 mg, Day 14, 100 mg QD
  CL renal: 1.33 mL/min
  Cmax: 1240 ng/mL
[1]; 300 mg, Day 1, 300 mg QD
  CL renal: 1.33 mL/min
  Cmax: 2750 ng/mL
[1]; 300 mg, Day 14, 300 mg QD
  CL renal: 1.34 mL/min
  Cmax: 3470 ng/mL
[1]; 600 mg, Day 1, 600 mg QD
  CL renal: 1.45 mL/min
  Cmax: 5180 ng/mL
[1]; 600 mg, Day 14, 600 mg QD
  CL renal: 1.31 mL/min
  Cmax: 5460 ng/mL
[1]; 100 mg, Day 1, 100 mg QD, read-out: AUC0-24
  AUC(0-t): 7780 ng·h/mL
[1]; 100 mg, Day 1, 100 mg QD, read-out: AUC0-last
  AUC(0-t): 7780 ng·h/mL
[1]; 100 mg, Day 1, 100 mg QD, median, read-out: Tmax
  Tmax: 4 h
[1]; 100 mg, Day 14, 100 mg QD, read-out: AUC0-24
  AUC(0-t): 14200 ng·h/mL
[1]; 100 mg, Day 14, 100 mg QD, read-out: AUC0-last
  AUC(0-t): 19200 ng·h/mL
[1]; 100 mg, Day 14, 100 mg QD, read-out: Cmin
  concentration at 14 day: 201 ng/mL
[1]; 100 mg, Day 14, 100 mg QD, read-out: Css
  concentration at 14 day: 591 ng/mL
[1]; 100 mg, Day 14, 100 mg QD, median, read-out: Tmax
  Tmax: 3 h
[1]; 300 mg, Day 1, 300 mg QD, read-out: AUC0-24
  AUC(0-t): 29500 ng·h/mL
[1]; 300 mg, Day 1, 300 mg QD, read-out: AUC0-last
  AUC(0-t): 29500 ng·h/mL
[1]; 300 mg, Day 1, 300 mg QD, median, read-out: Tmax
  Tmax: 4 h
[1]; 300 mg, Day 14, 300 mg QD, read-out: AUC0-24
  AUC(0-t): 36000 ng·h/mL
[1]; 300 mg, Day 14, 300 mg QD, read-out: AUC0-last
  AUC(0-t): 45700 ng·h/mL
[1]; 300 mg, Day 14, 300 mg QD, read-out: Cmin
  concentration at 14 day: 357 ng/mL
[1]; 300 mg, Day 14, 300 mg QD, read-out: Css
  concentration at 14 day: 1500 ng/mL
[1]; 300 mg, Day 14, 300 mg QD, median, read-out: Tmax
  Tmax: 3 h
[1]; 600 mg, Day 1, 600 mg QD, read-out: AUC0-24
  AUC(0-t): 59600 ng·h/mL
[1]; 600 mg, Day 1, 600 mg QD, read-out: AUC0-last
  AUC(0-t): 59600 ng·h/mL
[1]; 600 mg, Day 1, 600 mg QD, median, read-out: Tmax
  Tmax: 4 h
[1]; 600 mg, Day 14, 600 mg QD, read-out: AUC0-24
  AUC(0-t): 56100 ng·h/mL
[1]; 600 mg, Day 14, 600 mg QD, read-out: AUC0-last
  AUC(0-t): 74000 ng·h/mL
[1]; 600 mg, Day 14, 600 mg QD, read-out: Cmin
  concentration at 14 day: 520 ng/mL
[1]; 600 mg, Day 14, 600 mg QD, read-out: Css
  concentration at 14 day: 2340 ng/mL
[1]; 600 mg, Day 14, 600 mg QD, median, read-out: Tmax
  Tmax: 3.51 h
[1]; Day 14, across dose groups, read-out: median Tmax
  Tmax: 3 to 3.51 h
[1]; Study Day 1, each dose group, read-out: median Tmax
  Tmax: 4 h
[1]; Day 14, 600 mg QD, n = 7
  half-life: 15 h
[2]; time range 0.5 h-1.5 h
  Plasma concentration of SYN120, individual samples: 1310 ng/mL and 297 ng/mL and 116 ng/mL and 476 ng/mL and 326 ng/mL and 8.57 ng/mL and 309 ng/mL
  Plasma concentration of SYN120, Max: 1310 ng/mL
  Plasma concentration of SYN120, Median: 309 ng/mL
  Plasma concentration of SYN120, Min: 8.57 ng/mL
[2]; time range 1.5 h-2.5 h
  Plasma concentration of SYN120, individual samples: 120 ng/mL and 558 ng/mL and 314 ng/mL and 705 ng/mL and 229 ng/mL and 235 ng/mL and 430 ng/mL and 581 ng/mL
  Plasma concentration of SYN120, Max: 705 ng/mL
  Plasma concentration of SYN120, Median: 372 ng/mL
  Plasma concentration of SYN120, Min: 120 ng/mL
[2]; time range 2.5 h-3.5 h
  Plasma concentration of SYN120, individual samples: 1660 ng/mL and 355 ng/mL and 473 ng/mL and 410 ng/mL and 1220 ng/mL and 1620 ng/mL and 767 ng/mL
  Plasma concentration of SYN120, Max: 1660 ng/mL
  Plasma concentration of SYN120, Median: 767 ng/mL
  Plasma concentration of SYN120, Min: 355 ng/mL
[2]; time range 3.5 h-4.5 h
  Plasma concentration of SYN120, individual samples: 1330 ng/mL and 855 ng/mL and 24.2 ng/mL and 467 ng/mL and 1190 ng/mL and 1470 ng/mL
  Plasma concentration of SYN120, Max: 1470 ng/mL
  Plasma concentration of SYN120, Median: 1023 ng/mL
  Plasma concentration of SYN120, Min: 24.2 ng/mL
[2]; time range 4.5 h-7.5 h
  Plasma concentration of SYN120, individual samples: 1160 ng/mL and 124 ng/mL and 344 ng/mL and 989 ng/mL and 1210 ng/mL and 850 ng/mL
  Plasma concentration of SYN120, Max: 1210 ng/mL
  Plasma concentration of SYN120, Median: 920 ng/mL
  Plasma concentration of SYN120, Min: 124 ng/mL
[2]; time range 0.5 h-1.5 h, n 7
  Plasma concentration of SYN120, Mean: 406.1 ng/mL
[2]; time range 1.5 h-2.5 h, n 8
  Plasma concentration of SYN120, Mean: 396.5 ng/mL
[2]; time range 2.5 h-3.5 h, n 7
  Plasma concentration of SYN120, Mean: 929.3 ng/mL
[2]; time range 3.5 h-4.5 h, n 6
  Plasma concentration of SYN120, Mean: 889.4 ng/mL
[2]; time range 4.5 h-7.5 h, n 6
  Plasma concentration of SYN120, Mean: 779.5 ng/mL
[2]; once per day maintenance dosing
  time of peak plasma level after administration: 1 to 4 h
[3]
  pKi: 9.6
[4]
  pKi: 7.8
[5]
  pKi: 7.7
[6]
  pKi: 8.1
